Source: PubChem BioAssay (NCI)
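Step 1: Grow cells in 96-well plates. Step 2: Expose to compound for 48 hours at 5 concentrations. Step 3: Interpolate endpoints linearly; if unreached, use highest concentration. TGI denotes the concentration required for complete inhibition of growth.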

How the values were obtained:
Assay in all cases: NCI tumour cell line growth inhibition, 48 h
RXF-631 renal = test system: RXF-631 renal
XF 498 CNS = test system: XF 498 CNS
KM12 colon = test system: KM12 colon
SF-268 CNS = test system: SF-268 CNS
SR leukemia = test system: SR leukemia
A549 NSCLC = test system: A549 NSCLC
M14 melanoma = test system: M14 melanoma
OVCAR-8 ovarian = test system: OVCAR-8 ovarian
OVCAR-5 ovarian = test system: OVCAR-5 ovarian
CAKI-1 renal = test system: CAKI-1 renal
MALME-3M melanoma = test system: MALME-3M melanoma
HL-60(TB) leukemia = test system: HL-60(TB) leukemia
NCI-H226 lung = test system: NCI-H226 lung
RPMI-8226 leukemia = test system: RPMI-8226 leukemia
LOX IMVI melanoma = test system: LOX IMVI melanoma
NCI-H522 lung = test system: NCI-H522 lung
MOLT-4 leukemia = test system: MOLT-4 leukemia
SNB-75 CNS = test system: SNB-75 CNS
SF-295 CNS = test system: SF-295 CNS
KM20L2 colon = test system: KM20L2 colon
NCI-H23 lung = test system: NCI-H23 lung
RXF 393 renal = test system: RXF 393 renal
HOP-18 NSCLC = test system: HOP-18 NSCLC
A498 renal = test system: A498 renal
OVCAR-4 ovarian = test system: OVCAR-4 ovarian
LXFL 529 NSCLC = test system: LXFL 529 NSCLC
UO-31 renal = test system: UO-31 renal
M19-MEL melanoma = test system: M19-MEL melanoma
CCRF-CEM leukemia = test system: CCRF-CEM leukemia
HCC-2998 colon = test system: HCC-2998 colon
SK-MEL-28 melanoma = test system: SK-MEL-28 melanoma
UACC-257 melanoma = test system: UACC-257 melanoma
DLD-1 colon = test system: DLD-1 colon
HOP-62 NSCLC = test system: HOP-62 NSCLC
HT29 colon = test system: HT29 colon
IGROV1 ovarian = test system: IGROV1 ovarian
SK-OV-3 ovarian = test system: SK-OV-3 ovarian
DMS 114 small cell lung = test system: DMS 114 small cell lung
SN12C renal = test system: SN12C renal
OVCAR-3 ovarian = test system: OVCAR-3 ovarian
HCT-116 colon = test system: HCT-116 colon
SK-MEL-2 melanoma = test system: SK-MEL-2 melanoma
U251 CNS = test system: U251 CNS
SNB-78 CNS = test system: SNB-78 CNS
K-562 leukemia = test system: K-562 leukemia
COLO 205 colon = test system: COLO 205 colon
ACHN renal = test system: ACHN renal
HCT-15 colon = test system: HCT-15 colon
SW-620 colon = test system: SW-620 colon
786-0 renal = test system: 786-0 renal
HOP-92 NSCLC = test system: HOP-92 NSCLC
UACC-62 melanoma = test system: UACC-62 melanoma
DMS 273 small cell lung = test system: DMS 273 small cell lung
SF-539 CNS = test system: SF-539 CNS
SK-MEL-5 melanoma = test system: SK-MEL-5 melanoma
SNB-19 CNS = test system: SNB-19 CNS
EKVX NSCLC = test system: EKVX NSCLC
NCI-H460 lung = test system: NCI-H460 lung
TK-10 renal = test system: TK-10 renal

SMILES: COc1ccc(/C=C/c2cc(OC)cc(OC)c2)cc1
- TGI (RXF-631 renal): > 53.2 µM
- TGI (XF 498 CNS): 98.9 µM
- TGI (KM12 colon): > 69.1 µM
- TGI (SF-268 CNS): > 28.2 µM
- TGI (SR leukemia): > 100 µM
- TGI (A549 NSCLC): > 100 µM
- TGI (M14 melanoma): 53.1 µM
- TGI (OVCAR-8 ovarian): > 100 µM
- TGI (OVCAR-5 ovarian): > 50.1 µM
- TGI (CAKI-1 renal): 46.8 µM
- TGI (MALME-3M melanoma): > 100 µM
- TGI (HL-60(TB) leukemia): 8.52 µM
- TGI (NCI-H226 lung): > 31.1 µM
- TGI (RPMI-8226 leukemia): 23.7 µM
- TGI (LOX IMVI melanoma): > 100 µM
- TGI (NCI-H522 lung): 11.6 µM
- TGI (MOLT-4 leukemia): > 51 µM
- TGI (SNB-75 CNS): > 35.6 µM
- TGI (SF-295 CNS): > 31.3 µM
- TGI (KM20L2 colon): 11.7 µM
- TGI (NCI-H23 lung): > 100 µM
- TGI (RXF 393 renal): 10.7 µM
- TGI (HOP-18 NSCLC): > 100 µM
- TGI (A498 renal): > 61 µM
- TGI (OVCAR-4 ovarian): > 100 µM
- TGI (LXFL 529 NSCLC): > 100 µM
- TGI (UO-31 renal): > 64.2 µM
- TGI (M19-MEL melanoma): > 100 µM
- TGI (CCRF-CEM leukemia): 36.6 µM
- TGI (HCC-2998 colon): 33.2 µM
- TGI (SK-MEL-28 melanoma): 65.7 µM
- TGI (UACC-257 melanoma): > 100 µM
- TGI (DLD-1 colon): > 100 µM
- TGI (HOP-62 NSCLC): 32.6 µM
- TGI (HT29 colon): > 36.6 µM
- TGI (IGROV1 ovarian): > 100 µM
- TGI (SK-OV-3 ovarian): 37.5 µM
- TGI (DMS 114 small cell lung): 9.91 µM
- TGI (SN12C renal): > 45.4 µM
- TGI (OVCAR-3 ovarian): 8.78 µM
- TGI (HCT-116 colon): > 58 µM
- TGI (SK-MEL-2 melanoma): > 57 µM
- TGI (U251 CNS): > 59.8 µM
- TGI (SNB-78 CNS): 8.71 µM
- TGI (K-562 leukemia): > 100 µM
- TGI (COLO 205 colon): 10.7 µM
- TGI (ACHN renal): > 100 µM
- TGI (HCT-15 colon): > 100 µM
- TGI (SW-620 colon): > 100 µM
- TGI (786-0 renal): 59.6 µM
- TGI (HOP-92 NSCLC): > 100 µM
- TGI (UACC-62 melanoma): > 100 µM
- TGI (DMS 273 small cell lung): 15.6 µM
- TGI (SF-539 CNS): 11 µM
- TGI (SK-MEL-5 melanoma): > 100 µM
- TGI (SNB-19 CNS): > 100 µM
- TGI (EKVX NSCLC): > 100 µM
- TGI (NCI-H460 lung): > 34.4 µM
- TGI (TK-10 renal): > 100 µM

SMILES: Cc1ccc(NC(=O)CC(=O)n2nc(-c3ccccc3)c(N=Nc3ccccc3[N+](=O)[O-])c2-c2ccccc2)cc1
- TGI (RXF-631 renal): > 100 µM
- TGI (XF 498 CNS): > 100 µM
- TGI (KM12 colon): > 100 µM
- TGI (SF-268 CNS): > 100 µM
- TGI (SR leukemia): > 100 µM
- TGI (A549 NSCLC): > 100 µM
- TGI (M14 melanoma): > 100 µM
- TGI (OVCAR-8 ovarian): > 100 µM
- TGI (OVCAR-5 ovarian): > 100 µM
- TGI (CAKI-1 renal): > 100 µM
- TGI (MALME-3M melanoma): > 100 µM
- TGI (HL-60(TB) leukemia): > 100 µM
- TGI (RPMI-8226 leukemia): > 100 µM
- TGI (LOX IMVI melanoma): > 100 µM
- TGI (NCI-H522 lung): > 100 µM
- TGI (MOLT-4 leukemia): > 100 µM
- TGI (SNB-75 CNS): > 100 µM
- TGI (SF-295 CNS): > 100 µM
- TGI (KM20L2 colon): > 100 µM
- TGI (NCI-H23 lung): > 100 µM
- TGI (RXF 393 renal): > 100 µM
- TGI (HOP-18 NSCLC): > 100 µM
- TGI (OVCAR-4 ovarian): > 100 µM
- TGI (LXFL 529 NSCLC): > 100 µM
- TGI (UO-31 renal): > 100 µM
- TGI (M19-MEL melanoma): > 100 µM
- TGI (CCRF-CEM leukemia): > 100 µM
- TGI (HCC-2998 colon): > 100 µM
- TGI (SK-MEL-28 melanoma): > 100 µM
- TGI (UACC-257 melanoma): > 100 µM
- TGI (DLD-1 colon): > 100 µM
- TGI (HOP-62 NSCLC): > 100 µM
- TGI (HT29 colon): > 100 µM
- TGI (IGROV1 ovarian): > 100 µM
- TGI (SK-OV-3 ovarian): > 100 µM
- TGI (DMS 114 small cell lung): > 100 µM
- TGI (SN12C renal): > 100 µM
- TGI (OVCAR-3 ovarian): > 100 µM
- TGI (HCT-116 colon): > 100 µM
- TGI (SK-MEL-2 melanoma): > 100 µM
- TGI (U251 CNS): > 100 µM
- TGI (SNB-78 CNS): > 100 µM
- TGI (K-562 leukemia): > 100 µM
- TGI (COLO 205 colon): > 100 µM
- TGI (ACHN renal): > 100 µM
- TGI (SW-620 colon): > 100 µM
- TGI (786-0 renal): > 100 µM
- TGI (HOP-92 NSCLC): > 100 µM
- TGI (UACC-62 melanoma): > 100 µM
- TGI (DMS 273 small cell lung): > 100 µM
- TGI (SF-539 CNS): > 100 µM
- TGI (SK-MEL-5 melanoma): > 100 µM
- TGI (SNB-19 CNS): > 100 µM
- TGI (EKVX NSCLC): > 100 µM
- TGI (NCI-H460 lung): > 100 µM
- TGI (TK-10 renal): > 100 µM
